Here are results for nine compounds from patent US8680071B2 (Idenix Pharmaceuticals, Inc., priority 2010, dated 2014).

pEC50: −log10 of the molar value. Read-outs that look alike come from different tables or passages of the source.

The CC50 is the concentration giving 50% cytotoxicity. What is called pEC50 is the EC50 on a negative log10 scale, so that one unit is a factor of ten. A word on the EC50: it is the concentration needed to bring the measured effect to its halfway point.

Series [1] is described as follows: Cytotoxicity evaluation (Cell Titer 96 AQueous One Solution Cell Proliferation Assay). The class given is cell-based. The conditions noted are these: human, GS4.1 cells, cellular viability, read-out: HCV Replicon CC50. The protocol:
(§1) Huh-7 cells containing HCV Con1 subgenomic replicon (GS4.1 cells), (C. Seeger; Fox Chase University, Philadelphia, Pa., USA), are grown in Dulbecco's Modified Eagle Medium (DMEM) supplemented with 10% fetal bovine serum (FBS), 2 mM L-glutamine, 110 mg/L sodium pyruvate, 1× non-essential amino acids, 100 U/mL penicillin-streptomycin and 0.5 mg/mL G418 (Invitrogen). For dose-response testing, the cells are seeded in 96-well plates at 7.5×10^3 cells/well in a volume of 50 μL and incubated at 37° C./5% CO2. Three hours after plating, 50 μL of ten 2-fold serial dilutions of compounds (highest concentration, 75 μM) are added and cell cultures were incubated at 37° C./5% CO2 in the presence of 0.5% DMSO. Alternatively, compounds are tested at a single concentration of 15 μM. In all cases, Huh-7 cells lacking the HCV replicon served as negative control. The cells are incubated in the presence of compounds for 72 hours after which they were monitored for expression of the NS4A protein by enzyme-linked immunosorbent assay (ELISA). For this, the plates were then fixed for 1 min with 1:1 acetone:methanol, washed twice with phosphate-buffered saline (PBS), 0.1% Tween 20, blocked for 1 hour at room temperature with TNE buffer containing 10% FBS and then incubated for 2 h at 37° C. with the anti-NS4A mouse monoclonal antibody A-236 (ViroGen) diluted in the same buffer. After washing three times with PBS, 0.1% Tween 20, the cells are incubated 1 hour at 37° C. with anti-mouse immunoglobulin G-peroxidase conjugate in TNE, 10% FBS. After washing as described above, the reaction is developed with O-phenylenediamine (Zymed). The reaction is stopped after 30 minutes with […] and the absorbance is read at 492 nm using a Sunrise Tecan spectrophotometer. EC50 values are determined from the % inhibition versus concentration data using a sigmoidal non-linear regression analysis based on four parameters with Tecan Magellan software. When screening at a single concentration, the results are expressed as % inhibition at 15 μM. For cytotoxicity evaluation, GS4.1 cells are treated with compounds as described above and cellular viability was monitored using a Cell Titer 96 AQueous One Solution Cell Proliferation Assay (Promega). CC50 values are determined from the % cytotoxicity versus concentration data with Tecan Magellan software as described above.
A general note: In antiviral work, replicon cells carry a viral genome segment that copies itself.

In series [2] the test system is HCV Con1 subgenomic replicon. Briefly: HCV replicon assay (NS4A ELISA). The class given is cell-based. The conditions noted are these: Hepatitis C virus; for pEC50: ELISA 2 assay, Huh-7 cells containing HCV Con1 subgenomic replicon (GS4.1 cells), 72 hours, NS4A expression, read-out: HCV Replicon EC50; for EC50: Huh-7, 72 h, read-out: HCV Replicon EC50 (μM). How it is done:
as §1
Compounds presented in the table below were assayed according to the replicon assay described above.

As to `COC(=O)C(CC(C)C)NP(=O)(NC(CC(C)C)C(=O)OC)OC[C@H]1O[C@@H](n2cnc3c(OC)nc(N)nc32)[C@@]2(C)OC(=O)OC12` (stereo partly drawn) [Compound 4], in series [1], the CC50 at 72 h is above 75 µM. Moreover, the pEC50 in series [2] is above 6.00.
For `C#CC1(F)C(O)[C@@H](COP(=O)(NCC(=O)OCC)NCC(=O)OCC)O[C@H]1n1cnc2c(=O)[nH]c(N)nc21` (stereo partly drawn) [Compound 48], the CC50 at 72 h in series [1] was above 75 µM. Also, in series [2], the EC50 was above 10 µM.
Take `C[C@@]1(O)[C@H](O)[C@@H](CO)O[C@H]1n1cnc2c(=O)[nH]c(N)nc21` [2′-C-methylguanosine, reference compound]: the 50% cytotoxic concentration (CC50) at 72 h in series [1] is above 75 µM. In addition, in series [2], the negative-log EC50 (pEC50) was 5.00 to 6.00.
For `COC(=O)C(CC(C)C)NP(=O)(NC(CC(C)C)C(=O)OC)OC[C@H]1O[C@@H](n2cnc3c(=O)[nH]c(N)nc32)C(C)(O)C1O` (stereo partly drawn) [Compound 9], the CC50 at 72 h in series [1] was above 75 µM. Besides, the concentration for a half-maximal effect (EC50) in series [2] was 1 to 10 µM.
For `CCOC(=O)CNP(=O)(NCC(=O)OCC)OC[C@H]1O[C@@H](n2cnc3c(=O)[nH]c(N)nc32)C(C)(O)C1O` (stereo partly drawn) [Compound 54], the 50% cytotoxic concentration (CC50) at 72 h in series [1] was above 75 µM. For the same compound, in series [2], the EC50 was 1 to 10 µM.
Consider `C#C[C@@]1(F)[C@H](O)[C@@H](CO)O[C@H]1n1cnc2c(=O)[nH]c(N)nc21` [reference compound], for which the CC50 at 72 h in series [1] was above 75 µM. Besides, the pEC50 in series [2] was below 5.00.
On the same counts, the results for `COC(=O)C(CC(C)C)NP(=O)(NC(CC(C)C)C(=O)OC)OC[C@H]1O[C@@H](n2cnc3c(OC)nc(N)nc32)C(C)(O)C1O` (stereo partly drawn) [Compound 3] are above 75 µM and above 6.00.
With `CCOC(=O)C(CC(C)C)NP(=O)(NC(CC(C)C)C(=O)OCC)OC[C@H]1O[C@@H](n2cnc3c(NC4CC4)nc(N)nc32)C(C)(O)C1O` (stereo partly drawn) [Compound 6], the CC50 at 72 h in series [1] is above 75 µM. In series [2], the negative logarithm of the EC50 (pEC50) was above 6.00.
For `COC(=O)C(CC(C)C)NP(=O)(NC(CC(C)C)C(=O)OC)OC[C@H]1O[C@@H](n2cnc3c(NC4CC4)nc(N)nc32)C(C)(O)C1O` (stereo partly drawn) [Compound 8], in that order: above 75 µM and above 6.00.
